Measurements taken from PubChem BioAssay AID248 (DTP/NCI, 2004).
Toxic doses and inconclusive results are not listed.

Test system: L1210 leukemia ip in BDF1 mice, survival T/C
Test: NCI In Vivo Anticancer Drug Screen. Data for tumor model L1210 Leukemia (intraperitoneal) in B6D2F1 (BDF1) mice
Details: endpoint: mean survival time, higher = longer survival
Method in brief: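 Transplanted-tumor mice were given test agent; controls received vehicle only. Survival readings from the two groups were divided (treated over control).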

[1] = dose: 100.0 mg/kg/injection, schedule: Q04DX003 (ip), vehicle: saline with Tween-80
[2] = dose: 200.0 mg/kg/injection, schedule: Q04DX003 (ip), vehicle: saline with Tween-80
[3] = dose: 100.0 mg/kg/injection, schedule: Q04DX003 (ip), vehicle: Klucel (hydroxypropylcellulose) (HPC)
[4] = dose: 200.0 mg/kg/injection, schedule: Q04DX003 (ip), vehicle: Klucel (hydroxypropylcellulose) (HPC)
[5] = dose: 400.0 mg/kg/injection, schedule: Q04DX003 (ip), vehicle: Klucel (hydroxypropylcellulose) (HPC)
[6] = dose: 100.0 mg/kg/injection, schedule: Q01DX001 (ip), vehicle: saline
[7] = dose: 200.0 mg/kg/injection, schedule: Q01DX001 (ip), vehicle: saline
[8] = dose: 400.0 mg/kg/injection, schedule: Q01DX001 (ip), vehicle: saline
[9] = dose: 100.0 mg/kg/injection, schedule: Q01DX009 (ip), vehicle: saline
[10] = dose: 100.0 mg/kg/injection, schedule: Q04DX002 (ip), vehicle: Klucel (hydroxypropylcellulose) (HPC)
[11] = dose: 200.0 mg/kg/injection, schedule: Q04DX002 (ip), vehicle: Klucel (hydroxypropylcellulose) (HPC)

SMILES: CCC(C)C(CN)(CCCCN(C)C)c1cccc2ccccc12 (configuration not stated)
- T/C [1]: 97 % of control
- T/C [2]: 100 % of control

SMILES: Cc1ccc(S(=O)(=O)N=Nc2c(O)[nH]c3ccccc23)cc1
- T/C (dose: 75.0 mg/kg/injection, schedule: Q04DX002 (ip), vehicle: gum acacia): 93 % of control
- T/C (dose: 150.0 mg/kg/injection, schedule: Q04DX002 (ip), vehicle: gum acacia): 93 % of control
- T/C (dose: 300.0 mg/kg/injection, schedule: Q04DX002 (ip), vehicle: gum acacia): 100 % of control

SMILES: c1cn[nH]c1
- T/C (dose: 50.0 mg/kg/injection, schedule: Q01DX001 (ip), vehicle: carboxymethylcellulose (CMC)): 96 % of control
- T/C (dose: 100.0 mg/kg/injection, schedule: Q01DX001 (ip), vehicle: carboxymethylcellulose (CMC)): 100 % of control
- T/C (dose: 200.0 mg/kg/injection, schedule: Q01DX001 (ip), vehicle: carboxymethylcellulose (CMC)): 96 % of control

SMILES: CC(C)CNc1ccc(S(=O)(=O)c2ccc(NCC(C)C)c([N+](=O)[O-])c2)cc1[N+](=O)[O-]
- T/C (dose: 3.12 mg/kg/injection, schedule: Q01DX009 (ip), vehicle: DMSO): 92 % of control
- T/C (dose: 6.25 mg/kg/injection, schedule: Q01DX009 (ip), vehicle: DMSO): 89 % of control
- T/C (dose: 12.5 mg/kg/injection, schedule: Q01DX009 (ip), vehicle: DMSO): 105 % of control
- T/C (dose: 25.0 mg/kg/injection, schedule: Q01DX005 (ip), vehicle: DMSO): 92 % of control
- T/C (dose: 25.0 mg/kg/injection, schedule: Q01DX009 (ip), vehicle: DMSO): 88 % of control
- T/C (dose: 50.0 mg/kg/injection, schedule: Q01DX005 (ip), vehicle: DMSO): 92 % of control
- T/C (dose: 100.0 mg/kg/injection, schedule: Q01DX005 (ip), vehicle: DMSO): 90 % of control
- T/C (dose: 100.0 mg/kg/injection, schedule: Q04DX002 (ip), vehicle: DMSO): 96 % of control
- T/C (dose: 200.0 mg/kg/injection, schedule: Q04DX002 (ip), vehicle: DMSO): 111 % of control
- T/C (dose: 400.0 mg/kg/injection, schedule: Q04DX002 (ip), vehicle: DMSO): 107 % of control

SMILES: CCCCCCC1CCCCN1 (configuration not stated)
- T/C (dose: 5.0 mg/kg/injection, schedule: Q01DX001 (ip), vehicle: saline): 104 % of control
- T/C (dose: 10.0 mg/kg/injection, schedule: Q01DX001 (ip), vehicle: saline): 96 % of control
- T/C (dose: 12.5 mg/kg/injection, schedule: Q04DX003 (ip), vehicle: saline with Tween-80): 103 % of control
- T/C (dose: 20.0 mg/kg/injection, schedule: Q01DX001 (ip), vehicle: saline): 98 % of control
- T/C (dose: 25.0 mg/kg/injection, schedule: Q04DX003 (ip), vehicle: saline with Tween-80): 98 % of control
- T/C (dose: 40.0 mg/kg/injection, schedule: Q01DX001 (ip), vehicle: saline): 96 % of control
- T/C (dose: 50.0 mg/kg/injection, schedule: Q04DX003 (ip), vehicle: saline with Tween-80): 103 % of control

SMILES: Clc1ccc(/C=C/c2nccc(Cl)n2)cc1
- T/C [1]: 106 % of control
- T/C [2]: 106 % of control
- T/C (dose: 400.0 mg/kg/injection, schedule: Q04DX003 (ip), vehicle: saline with Tween-80): 106 % of control

SMILES: [Cl][Hg][Cl].c1ccc(N=P(c2ccccc2)(c2ccccc2)c2ccccc2)cc1
- T/C (dose: 9.38 mg/kg/injection, schedule: Q01DX001 (ip), vehicle: other): 96 % of control
- T/C (dose: 18.75 mg/kg/injection, schedule: Q01DX001 (ip), vehicle: other): 102 % of control

SMILES: COc1cc(OC)c(NC(=O)c2ccccc2Cl)cc1Cl
- T/C (dose: 100.0 mg/kg/injection, schedule: Q01DX009 (ip), vehicle: Klucel (hydroxypropylcellulose) (HPC)): 92 % of control
- T/C (dose: 200.0 mg/kg/injection, schedule: Q01DX009 (ip), vehicle: Klucel (hydroxypropylcellulose) (HPC)): 90 % of control
- T/C (dose: 400.0 mg/kg/injection, schedule: Q01DX009 (ip), vehicle: Klucel (hydroxypropylcellulose) (HPC)): 93 % of control

SMILES: Nc1cc[n+](-c2ccc([N+](=O)[O-])cc2[N+](=O)[O-])cc1
- T/C (dose: 12.5 mg/kg/injection, schedule: Q01DX009 (ip), vehicle: Klucel (hydroxypropylcellulose) (HPC)): 98 % of control
- T/C (dose: 25.0 mg/kg/injection, schedule: Q01DX009 (ip), vehicle: Klucel (hydroxypropylcellulose) (HPC)): 100 % of control

SMILES: CCCCCCCCCCCCCCCCOc1ccc(C(SC)=[N+]2CCCCC2)cc1OC
- T/C [3]: 98 % of control
- T/C [4]: 102 % of control
- T/C [5]: 102 % of control

SMILES: CCCCC#CCl
- T/C [6]: 101 % of control
- T/C [7]: 94 % of control
- T/C [8]: 94 % of control

SMILES: C/C(C/C(C)=N/O)=N/O.C/C(C/C(C)=N/O)=N\O.[Cl][Rh][Cl]
- T/C (dose: 25.0 mg/kg/injection, schedule: Q01DX009 (ip), vehicle: water): 100 % of control
- T/C (dose: 50.0 mg/kg/injection, schedule: Q01DX009 (ip), vehicle: water): 97 % of control
- T/C (dose: 100.0 mg/kg/injection, schedule: Q01DX009 (ip), vehicle: water): 97 % of control
- T/C (dose: 200.0 mg/kg/injection, schedule: Q01DX009 (ip), vehicle: water): 100 % of control
- T/C (dose: 400.0 mg/kg/injection, schedule: Q01DX009 (ip), vehicle: water): 94 % of control

SMILES: CC(C)N(C(=S)SC(=S)N(C(C)C)C(C)C)C(C)C
- T/C (dose: 50.0 mg/kg/injection, schedule: Q04DX003 (ip), vehicle: Klucel (hydroxypropylcellulose) (HPC)): 93 % of control
- T/C [3]: 90 % of control
- T/C [4]: 96 % of control

SMILES: CCCCCCC1(C)NC(=O)NC1=O (configuration not stated)
- T/C [6]: 102 % of control
- T/C [7]: 100 % of control
- T/C [8]: 96 % of control

SMILES: N#Cc1ccc(NC(=O)N(CCCl)N=O)cc1
- T/C (dose: 1.0 mg/kg/injection, schedule: Q01DX009 (ip), vehicle: saline): 150 % of control
- T/C (dose: 1.56 mg/kg/injection, schedule: Q01DX009 (ip), vehicle: saline): 161 % of control
- T/C (dose: 6.25 mg/kg/injection, schedule: Q01DX Z (ip), vehicle: carboxymethylcellulose (CMC)): 160 % of control
- T/C (dose: 12.5 mg/kg/injection, schedule: Q01DX Z (ip), vehicle: carboxymethylcellulose (CMC)): 118 % of control
- T/C (dose: 25.0 mg/kg/injection, schedule: Q01DX Z (ip), vehicle: carboxymethylcellulose (CMC)): 104 % of control
- T/C (dose: 37.5 mg/kg/injection, schedule: Q01DX001 (ip), vehicle: carboxymethylcellulose (CMC)): 152 % of control
- T/C (dose: 75.0 mg/kg/injection, schedule: Q01DX001 (ip), vehicle: carboxymethylcellulose (CMC)): 153 % of control
- T/C (dose: 150.0 mg/kg/injection, schedule: Q01DX001 (ip), vehicle: carboxymethylcellulose (CMC)): 177 % of control

SMILES: c1ccc(-n2nnnc2-c2nnnn2-c2ccccc2)cc1
- T/C [6]: 98 % of control
- T/C [7]: 98 % of control
- T/C [8]: 101 % of control

SMILES: O=C1C=C(C2CCCCC2)C(=O)C2CCCCC12 (configuration not stated)
- T/C (dose: 100.0 mg/kg/injection, schedule: Q01DX001 (ip), vehicle: Klucel (hydroxypropylcellulose) (HPC)): 107 % of control
- T/C [9]: 92 % of control
- T/C (dose: 200.0 mg/kg/injection, schedule: Q01DX001 (ip), vehicle: Klucel (hydroxypropylcellulose) (HPC)): 105 % of control
- T/C (dose: 200.0 mg/kg/injection, schedule: Q01DX009 (ip), vehicle: saline): 91 % of control
- T/C (dose: 400.0 mg/kg/injection, schedule: Q01DX001 (ip), vehicle: Klucel (hydroxypropylcellulose) (HPC)): 114 % of control
- T/C (dose: 400.0 mg/kg/injection, schedule: Q01DX009 (ip), vehicle: saline): 86 % of control

SMILES: Cc1nc2c(nc1C)C(=O)C1C3c4ccccc4C(c4ccccc43)C1C2=O (configuration not stated)
- T/C [4]: 93 % of control
- T/C [5]: 93 % of control

SMILES: C=CCN(CC=C)P(=O)(N1CC1)N1CC1
- T/C (dose: 6.2 mg/kg/injection, schedule: Q01DX001 (ip), vehicle: saline): 88 % of control
- T/C (dose: 12.5 mg/kg/injection, schedule: Q01DX001 (ip), vehicle: saline): 88 % of control
- T/C (dose: 25.0 mg/kg/injection, schedule: Q01DX001 (ip), vehicle: saline): 88 % of control
- T/C (dose: 50.0 mg/kg/injection, schedule: Q01DX001 (ip), vehicle: saline): 88 % of control

SMILES: Cc1ccc(Cc2c(C=O)nc(N)[nH]c2=O)c2ccccc12
- T/C [10]: 90 % of control
- T/C [11]: 97 % of control

SMILES: CC(=O)N(N=O)c1ccc(Cl)cc1[N+](=O)[O-]
- T/C (dose: 50.0 mg/kg/injection, schedule: Q01DX009 (ip), vehicle: saline): 101 % of control
- T/C [9]: 104 % of control

SMILES: CC(=O)OCC1OC(OCC2OC(Sc3ccccc3)C(OC(C)=O)C(OC(C)=O)C2OC(C)=O)C(OC(C)=O)C(OC(C)=O)C1OC(C)=O (configuration not stated)
- T/C [10]: 89 % of control
- T/C [11]: 86 % of control
- T/C (dose: 400.0 mg/kg/injection, schedule: Q04DX002 (ip), vehicle: Klucel (hydroxypropylcellulose) (HPC)): 86 % of control
